Test system: HCV replication (HCV replicon-containing Huh7/Clone A cells)
Assay: HCV replicon assay
Format: cell-based
Conditions: Hepatitis C virus, Huh-7, 48 hours incubation, HCV replicon RNA by RT-qPCR normalized to total RNA, read-out: IC50, inhibition of HCV replication
Description: The HCV replicon assay is a cell-culture system that mimics in vivo HCV replication and provides a system to study HCV replication in vitro. It was created by transfecting cloned viral RNA derived from a consensus HCV genomic sequence into human Huh7 hepatoma cells that are semi-permissive for viral RNA production (Lohmann V., Korner F., Koch J.-0., Herian U., Theilmann L. and Bartenschlager R. (1999). Replication of subgenomic Hepatitis C virus RNAs in a hepatoma cell line. Science 285, 110-113 and Blight K. J., Kolykhalov A. A. and Rice C. M. (2000). Efficient initiation of HCV RNA Replication in cell culture. Science 290, […]). These transfected cell lines contain a subgenomic HCV RNA genome that includes (1) the HCV 5′NTR fused to 12 amino acids of the capsid coding region, (2) the neomycin phosphotransferase gene (Neo) as a selectable marker, (3) the internal ribosome entry site (IRES) from encephalomyocarditis virus (EMCV) that directs translation of HCV non-structural proteins (variously NS2 or NS3 to NS5B), and (4) the 3′ NTR. Replicon-containing cells autonomously and persistently replicate HCV RNA that can be measured quantitatively by real-time qPCR. Therefore, the replicon system facilitates quantitative assessment of anti-viral activity by monitoring changes in HCV RNA replication in a cell-based assay.
HCV replicon-containing cells (Huh7/Clone A) were routinely maintained in Clone A growth medium (DMEM medium [Invitrogen], supplemented with 10% Fetal Bovine Serum, 1% Non Essential Amino Acids and 1 g/L G418). […]
Total RNA eluted in 130 μl of RNase-free dH2O was quantitated by the RiboGreen Assay according to the supplier's protocol (Molecular Probe). […] RNA samples in the black microplate were mixed with 95 μl of diluted RiboGreen reagent (1:250 dilution in TE buffer) and sample fluorescence was measured using a fluorescence microplate reader at standard fluorescein wavelengths (excitation ˜480 nm, emission ˜520 nm). […]
TaqMan quantitative PCR(RT-qPCR) was used to quantitate the amount of HCV replicon RNA in each sample. […]

Compound | IC50
CCC[C@H](NC(=O)[C@@H]1C[C@@H](Oc2cc(-c3ccccn3)nc3ccsc23)CN1C(=O)[C@@H](NC(=O)NC(C)(C)C)C(C)(C)C)C(=O)C(=O)NC1CC1 [Example 5, (2S,4R)-1-((S)-2-(3-tert-butylureido)-3,3-dimethylbutanoyl)-N—((S)-1-(cyclopropylamino)-1,2-dioxohexan-3-yl)-4-(5-(pyridin-2-yl)thieno[3,2-b]pyridin-7-yloxy)pyrrolidine-2-carboxamide] | < 1000 nM
CCC[C@H](NC(=O)[C@@H]1C[C@@H](Oc2nc(-c3ccccn3)nc3sccc23)CN1C(=O)[C@@H](NC(=O)NC(C)(C)C)C(C)(C)C)C(=O)C(=O)NC1CC1 [Example 6, (2S,4R)-1-((S)-2-(3-tert-butylureido)-3,3-dimethylbutanoyl)-N—((S)-1-(cyclopropylamino)-1,2-dioxohexan-3-yl)-4-(2-(pyridin-2-yl)thieno[2,3-d]pyrimidin-4-yloxy)pyrrolidine-2-carboxamide] | < 1000 nM
CCC[C@H](NC(=O)[C@@H]1C[C@@H](Oc2nc(-c3ccccn3)nc3ccsc23)CN1C(=O)[C@@H](NC(=O)NC(C)(C)C)C(C)(C)C)C(=O)C(=O)NC1CC1 [Example 7, (2S,4R)-1-((S)-2-(3-tert-butylureido)-3,3-dimethylbutanoyl)-N—((S)-1-(cyclopropylamino)-1,2-dioxohexan-3-yl)-4-(2-(pyridin-2-yl)thieno[3,2-d]pyrimidin-4-yloxy)pyrrolidine-2-carboxamide] | < 1000 nM
